Reference: the supplement of paper PMC11451515

Key:
Experiment in all cases: AUC of viability dose-response curve (% viability x log10 dose units); higher = less sensitive
Details in all cases: 48 h
[1] = system: NOMO1
Method in brief: (§1)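 Seeding of medium-adapted leukemia cells was at 500 or 1000 cells/well in 1536-well plates, followed by 48 h at 37°C with library compounds in DMSO at 11 threefold doses from 47 μM to 0.79 nM. CellTiter-Glo One luminescence was normalised per plate to DMSO and cell-free wells and fitted as a four-parameter log-logistic function of log10 dose. Area under the curve was integrated by trapezoidal rule, with curves exceeding full viability scaled and curves failing quality control removed.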

[2] = system: P12-Ichikawa
Method in brief: as §1

[3] = system: SEM cells
Method in brief: as §1

[4] = RPMI 5 mM glucose + 10% dialyzed FBS

Row | Structure (SMILES) | AUC of viability dose-response curve ([1]; HPLM + 10% dialyzed FBS) | AUC of viability dose-response curve ([1]; RPMI 5 mM glucose + 10% FBS) | AUC of viability dose-response curve [1, 4] | AUC of viability dose-response curve ([2]; HPLM + 10% dialyzed FBS) | AUC of viability dose-response curve ([2]; RPMI 5 mM glucose + 10% FBS) | AUC of viability dose-response curve [2, 4] | AUC of viability dose-response curve ([3]; HPLM + 10% dialyzed FBS) | AUC of viability dose-response curve ([3]; RPMI 5 mM glucose + 10% FBS) | AUC of viability dose-response curve [3, 4]
1 | Cc1n[nH]c2ccc(-c3cncc(OC[C@@H](N)Cc4c[nH]c5ccccc45)c3)cc12 | 270 | 310 | 280 | 309 | 294 | 290 | 245 | 286 | 265
2 | CN(C)[C@H]\1[C@@H]2[C@@H](O)[C@H]3\C(=C(O)/[C@]2(O)C(=O)\C(=C1O)C(N)=O)C(=O)C4=C(C=CC=C4O)[C@@]3(C)O | 448 | 459 | 449 | 454 | 456 | 421 | 459 | 463 | 476
3 | C=C1C(=O)O[C@@H]2[C@H]3O[C@]3(C)CC/C=C(\C)CC[C@@H]12 | 360 | 375 | 386 | 347 | 358 | 351 | 328 | 275 | 329
4 | CC1(C)CCC(=C(\C1)C2=CC=C(Cl)C=C2)/CN3CCN(CC3)C4=CC(=C(C=C4)C(=O)N[S+]([O-])(=O)C5=CC=C(NCC6CCOCC6)C(=C5)[N+]([O-])=O)OC7=CN=C8[NH]C=CC8=C7 | 355 | 347 | 290 | 436 | 436 | 449 | 186 | 198 | 175
5 | CC(C)C[C@@H](C(=O)N[C@H](C(=O)OC1CCCC1)c1ccccc1)[C@H](O)C(=O)NO | 451 | 449 | 446 | 446 | 424 | 441 | 454 | 423 | 399
6 | CCOC\1=C(/C(=O)NC2=CC=C(OC3=C(Cl)C(=NC=C3)N)C(=C2)F)C(=O)N(\C=C1)C4=CC=C(F)C=C4 | 415 | 446 | 440 | 444 | 447 | 431 | 328 | 309 | 300
7 | Oc1ccc(C2CNCCc3c2cc(O)c(O)c3Cl)cc1 (configuration not stated) | 449 | 425 | 454 | 453 | 456 | 427 | 441 | 426 | 438
8 | CNC(=O)c1cc(Oc2ccc(NC(=O)Nc3ccc(Cl)c(C(F)(F)F)c3)c(F)c2)ccn1 | 444 | 438 | 440 | 422 | 422 | 427 | 296 | 314 | 275
9 | NC(=O)Cc1cccc(C(=O)c2ccccc2)c1N | 461 | 435 | 436 | 468 | 456 | 455 | 433 | 404 | 428
10 | CN1CCN(CC1)C/2=N/C3=CC=CC=C3NC4=C2C=C(C)S4 | – | – | – | 465 | 458 | 458 | 467 | 454 | 473
11 | Clc1ccc(C(Cn2ccnc2)OCc2ccc(Sc3ccccc3)cc2)c(Cl)c1 (configuration not stated) | 441 | 450 | 453 | 453 | 453 | 455 | 416 | 445 | 438
12 | C[C@]12CCC(=O)C(O)=C1CC[C@@H]1[C@@H]2CC[C@]2(C)C(=O)CC[C@@H]12 | 467 | 454 | 462 | 468 | 455 | 459 | 473 | 471 | 460
13 | O=C(O)CCCc1ccc(N(CCCl)CCCl)cc1 | 468 | 464 | 465 | 455 | 456 | 462 | 458 | 451 | 458
14 | O=C1N\N=C(\C[C@@H]2CCN(C2)C(=O)C3CC3)N1C4=CC=C(C=C4)C5=CC=C6OC=CC6=C5 | 448 | 397 | 394 | 400 | 376 | 405 | – | – | –
15 | NC(=O)c1ncn([C@@H]2O[C@H](CO)[C@@H](O)[C@H]2O)c1N | 468 | 469 | 465 | 467 | 447 | 455 | 443 | 372 | 458
16 | COC(=O)Nc1nc2cc(Sc3ccccc3)ccc2[nH]1 | 377 | 391 | 387 | 377 | 376 | 382 | 377 | 365 | 371
17 | Cc1ccccc1C(C(=O)NC1CCCC1)N(C(=O)Cn1cnc2ccccc21)c1cccc(F)c1 (configuration not stated) | – | – | – | 446 | 439 | 446 | 429 | 464 | 469
18 | N[S+](=O)([O-])c1cc2c(cc1Cl)NCN[S+]2(=O)[O-] | 468 | 477 | 470 | 466 | 468 | 474 | 450 | 442 | 412
19 | O=C(/C=C/c1cccnc1)NCCCCC1CCN(C(=O)c2ccccc2)CC1 | 102 | 125 | 113 | 81 | 93.4 | 98 | – | – | –
20 | CN1C(=O)\C(=C/C2=C1N=C(NC3CCOCC3)N=C2)OC4=C(F)C=C(F)C=C4 | 420 | 406 | 413 | 428 | 429 | 420 | 439 | 463 | 430
21 | O=C(Nc1cccc2c(=O)cc(-c3nnn[nH]3)oc12)c1ccc(OCCCCc2ccccc2)cc1 | 433 | 384 | 404 | 424 | 416 | 389 | 378 | 371 | 392
22 | O=C(N[C@H]1CN2CCC1CC2)c1ccc(Cl)cc1 | 462 | 470 | 469 | 467 | 469 | 466 | 457 | 439 | 468
23 | OC[C@H]1O[C@H](C[C@@H]1O)N2\C=C(\I)C(=O)NC2=O | 456 | 470 | 446 | 435 | 462 | 472 | 452 | 454 | 386
24 | N[C@@H](Cc1cc(I)c(Oc2cc(I)c(O)c(I)c2)c(I)c1)C(=O)O | 456 | 473 | 429 | 445 | 460 | 468 | 463 | 454 | 438

Row | Structure (SMILES) | AUC of viability dose-response curve ([1]; HPLM + 10% dialyzed FBS) | AUC of viability dose-response curve ([1]; RPMI 5 mM glucose + 10% FBS) | AUC of viability dose-response curve [1, 4] | AUC of viability dose-response curve ([2]; HPLM + 10% dialyzed FBS) | AUC of viability dose-response curve ([2]; RPMI 5 mM glucose + 10% FBS) | AUC of viability dose-response curve [2, 4] | AUC of viability dose-response curve ([3]; HPLM + 10% dialyzed FBS) | AUC of viability dose-response curve ([3]; RPMI 5 mM glucose + 10% FBS) | AUC of viability dose-response curve [3, 4]
25 | CC(=O)O[C@@]12CO[C@@H]1C[C@H](O)[C@]3(C)[C@@H]2[C@H](OC(=O)C4=CC=CC=C4)[C@]5(O)C[C@H](O)/C(=C(/[C@@H](O)C3=O)C5(C)C)C | 423 | 430 | 430 | 421 | 411 | 426 | – | – | –
26 | CC(=O)OCC(CCn1cnc2cnc(N)nc21)COC(C)=O | 454 | 464 | 462 | 470 | 470 | 465 | 445 | 434 | 440
27 | Cc1ccc(Nc2nccc(N(C)c3ccc4c(C)n(C)nc4c3)n2)cc1[S+](N)(=O)[O-] | 462 | 464 | 476 | 450 | 444 | 450 | 400 | 371 | 388
28 | O=C(c1ccc(C(=O)N2CCC(N3CCCC3)CC2)c(Nc2ccccc2)c1)N1CCC(N2CCCC2)CC1 | 462 | 452 | 458 | 468 | 466 | 465 | 443 | 461 | 462
29 | COc1ccccc1OCC(O)CN1CCN(CC(=O)Nc2c(C)cccc2C)CC1 (configuration not stated) | 460 | 453 | 465 | 467 | 469 | 468 | 433 | 471 | 469
30 | N[C@@H](Cc1ccc(N(CCCl)CCCl)cc1)C(=O)O | 400 | 422 | 415 | 410 | 374 | 387 | 377 | 355 | 362
31 | CCOC(=O)c1c(/C(C#N)=C\N)c2ccc(Cl)c(Cl)c2n1C | 442 | 395 | 407 | 432 | 412 | 429 | 412 | 427 | 408
32 | O=C(O)CCc1ccc(NCc2cccc(Oc3ccccc3)c2)cc1 | 446 | 441 | 444 | 464 | 449 | 471 | 406 | 439 | 413
33 | C[C@@H](Oc1ccc2[nH]nc(/C=C/c3cnn(CCO)c3)c2c1)c1c(Cl)cncc1Cl | 401 | 379 | 381 | 386 | 385 | 374 | – | – | –
34 | NC/1=N/C(=O)C2=C([NH]C=C2CCC3=CC=C(C=C3)C(=O)N[C@@H](CCC(O)=O)C(O)=O)N1 | 358 | 446 | 398 | 372 | 408 | 409 | 355 | 444 | 371
35 | O=C1C(CCC(O)c2ccc(F)cc2)C(c2ccc(O)cc2)N1c1ccc(F)cc1 (configuration not stated) | 461 | 435 | 469 | 472 | 472 | 465 | 477 | 470 | 466
36 | CCCC[N+]1(C)[C@@H]2CC(OC(=O)[C@H](CO)c3ccccc3)C[C@H]1[C@@H]1O[C@@H]12 (some centres not stated) | 420 | 431 | 450 | 452 | 450 | 460 | 462 | 471 | 475
37 | CCCCC(F)(F)[C@@]1(O)CC[C@H]2[C@@H](CC(=O)[C@@H]2CCCCCCC(=O)O)O1 | 446 | 447 | 411 | 451 | 444 | 456 | 455 | 459 | 456
38 | CON(C)C(=O)N1\N=C(/S[C@]1(CCCN)C2=CC=CC=C2)C3=CC(=CC=C3F)F | – | – | – | – | – | – | 130 | 103 | 105
39 | CCNC(=O)c1noc(-c2cc(C(C)C)c(O)cc2O)c1-c1ccc(CN2CCOCC2)cc1 | 253 | 240 | 248 | 333 | 302 | 312 | 225 | 224 | 232
40 | COc1ccc(-c2cc3c(C)nc(N)nc3n([C@H]3CC[C@H](OCCO)CC3)c2=O)cn1 | 286 | 322 | 278 | 351 | 299 | 304 | – | – | –
41 | Cc1cccc(Nc2nc(N[C@@H]3CCCC[C@@H]3N)ncc2C(N)=O)c1 | 424 | 411 | 409 | 334 | 380 | 368 | – | – | –
42 | CN(C)Cc1cccc(N/C(=C2\C(=O)Nc3cc(C(=O)N(C)C)ccc32)c2ccccc2)c1 | 418 | 433 | 444 | 455 | 453 | 458 | 420 | 394 | 411
43 | COc1ccccc1N1CCN(CC(O)COc2cccc3ccccc23)CC1 (configuration not stated) | 450 | 448 | 431 | 467 | 439 | 441 | 473 | 455 | 449
44 | CCN(CCO)CCCC(C)Nc1ccnc2cc(Cl)ccc12 (configuration not stated) | 417 | 429 | 459 | 392 | 400 | 384 | – | – | –
45 | COc1cc2nc(N3CCN(C(=O)c4ccco4)CC3)nc(N)c2cc1OC | 411 | 384 | 392 | – | – | – | 332 | 383 | 377
46 | CO[C@H]1C[C@H]2OC[C@@]2(OC(C)=O)[C@H]3[C@H](OC(=O)C4=CC=CC=C4)[C@]5(O)C[C@H](OC(=O)[C@H](O)[C@@H](NC(=O)OC(C)(C)C)C6=CC=CC=C6)/C(=C(/[C@@H](OC)C(=O)[C@]13C)C5(C)C)C | 125 | 135 | 143 | 135 | 142 | 171 | – | – | –
47 | COC1=CC2=C(C=C1CC3=C(F)C(=CC=C3)Cl)C(=O)\C(=C/N2[C@H](CO)C(C)C)C(O)=O | 445 | 452 | 454 | 446 | 421 | 423 | – | – | –
48 | CN1\C(=C(O)/C2=C(C=C(Cl)S2)[S+]1([O-])=O)C(=O)NC3=NC=CC=C3 | 459 | 464 | 477 | 438 | 472 | 458 | – | – | –
